Results from paper PMC11467737, “Osteocalcin binds to a GPRC6A Venus fly trap allosteric site to positively modulate GPRC6A signaling” (FASEB BioAdvances, 2024).
Bridge positions count the residues as written; N and C are the ends. Ends that are not written are not given here.

How the values were obtained:
human GPRC6A isoform 2 [1] = target: T1, human GPRC6A isoform 2 (Homo sapiens, UniProt Q5T6X5); assay: cAMP accumulation in HEK-293 cells transfected with human GPRC6A isoform 2; format: cell-based; details: isoform 2; Ocn 1.73-26.0 nM; 1 mM calcium; 40 min; Figure 2C
T1 construct: expressed in transfected cells; host or cells: HEK-293
T1 sequence (Q5T6X5 19-751 isoform Q5T6X5-2 limits assumed): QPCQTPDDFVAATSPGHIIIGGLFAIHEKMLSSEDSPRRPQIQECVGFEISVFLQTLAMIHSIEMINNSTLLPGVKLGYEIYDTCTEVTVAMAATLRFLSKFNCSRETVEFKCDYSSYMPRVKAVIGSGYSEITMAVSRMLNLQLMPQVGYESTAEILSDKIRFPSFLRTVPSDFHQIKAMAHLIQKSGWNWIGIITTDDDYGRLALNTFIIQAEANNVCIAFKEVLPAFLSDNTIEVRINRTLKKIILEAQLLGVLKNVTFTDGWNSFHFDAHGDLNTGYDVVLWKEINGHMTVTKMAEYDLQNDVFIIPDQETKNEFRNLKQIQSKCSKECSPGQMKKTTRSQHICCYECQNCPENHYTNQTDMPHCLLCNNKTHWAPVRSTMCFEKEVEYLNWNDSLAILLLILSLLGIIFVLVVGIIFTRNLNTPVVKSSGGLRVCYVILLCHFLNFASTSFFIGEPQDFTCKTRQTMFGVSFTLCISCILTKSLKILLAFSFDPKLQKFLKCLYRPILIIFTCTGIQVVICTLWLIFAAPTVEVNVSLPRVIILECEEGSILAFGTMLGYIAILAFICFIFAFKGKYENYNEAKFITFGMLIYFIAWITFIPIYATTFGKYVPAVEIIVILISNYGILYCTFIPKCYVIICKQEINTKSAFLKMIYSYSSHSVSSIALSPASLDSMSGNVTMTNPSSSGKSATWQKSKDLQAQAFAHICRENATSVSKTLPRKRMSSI
Protocol: HEK‐293 transfected with human GPRC6A isoform cDNA plasmids cells (10^5 cells/well)[30] were cultured in 24‐well plates in DMEM supplemented with 10% fetal bovine serum and 1% penicillin/streptomycin (100 U/mL of penicillin and 100 μg/mL of streptomycin) for 48 h followed by 4 h incubation in DMEM/F12 containing 0.1% BSA and 0.5 mM IBMX to achieve quiescence and preventing cAMP degradation. Quiescent cells were treated with vehicle control, various ligands at concentration as indicated for 40 min at 37°C. Then, the reaction was stopped, and the cells lysed with 0.5 mL 0.1 N HCl. cAMP levels were measured by using Cyclic AMP EIA kit (Cayman Chemical; Ann Arbor, MA, USA) following the manufacture's protocol.

human GPRC6A isoform 3 = target: T2, human GPRC6A isoform 3 (Homo sapiens, UniProt Q5T6X5); assay: ERK activation (ELISA) in HEK-293 cells transfected with human GPRC6A isoform 3; format: cell-based; details: Ocn 1.73-26.0 nM, 1 mM calcium, 15 min, Figure 2B
T2 construct: expressed in transfected cells; host or cells: HEK-293
T2 sequence (Q5T6X5 19-855 isoform Q5T6X5-3 limits assumed): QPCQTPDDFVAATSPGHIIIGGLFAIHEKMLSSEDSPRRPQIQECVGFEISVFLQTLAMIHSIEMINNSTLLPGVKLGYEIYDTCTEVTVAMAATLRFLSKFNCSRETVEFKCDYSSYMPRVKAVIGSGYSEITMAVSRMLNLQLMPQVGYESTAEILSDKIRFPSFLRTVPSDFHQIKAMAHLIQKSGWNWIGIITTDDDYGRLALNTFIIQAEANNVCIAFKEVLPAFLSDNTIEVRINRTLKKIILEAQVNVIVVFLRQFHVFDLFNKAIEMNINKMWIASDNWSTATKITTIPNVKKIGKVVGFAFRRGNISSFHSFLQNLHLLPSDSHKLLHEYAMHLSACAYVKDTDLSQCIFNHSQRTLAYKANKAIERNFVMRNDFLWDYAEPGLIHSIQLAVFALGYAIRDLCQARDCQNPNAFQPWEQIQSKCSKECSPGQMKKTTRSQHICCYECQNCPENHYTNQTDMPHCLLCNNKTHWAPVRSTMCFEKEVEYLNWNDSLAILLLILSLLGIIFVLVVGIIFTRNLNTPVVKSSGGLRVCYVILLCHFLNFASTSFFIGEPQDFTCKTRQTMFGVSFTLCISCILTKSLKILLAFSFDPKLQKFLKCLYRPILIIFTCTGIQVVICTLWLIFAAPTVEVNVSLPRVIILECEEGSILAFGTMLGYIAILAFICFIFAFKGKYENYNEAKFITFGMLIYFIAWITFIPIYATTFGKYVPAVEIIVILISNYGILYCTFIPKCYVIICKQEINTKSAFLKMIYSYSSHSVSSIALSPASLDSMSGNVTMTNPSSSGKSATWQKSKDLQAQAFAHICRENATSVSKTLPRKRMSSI
Protocol: (§1) All culture reagents were from Invitrogen (Waltham, MA, USA). Human embryonic kidney HEK‐293 cells were obtained from American Type Culture Collection and cultured in DMEM medium supplemented with 10% fetal bovine serum and 1% Penicillin/Streptomycin (P/S). Briefly, HEK‐293 cells transfected with/without human GPRC6A isoforms cDNA plasmids were starved by overnight incubation in serum‐free DMEM/F12 containing 0.1% bovine serum albumin (BSA) and stimulated with various ligands at different doses. […]

human GPRC6A isoform 2 [2] = target: T1, human GPRC6A isoform 2; assay: ERK activation (ELISA) in HEK-293 cells transfected with human GPRC6A isoform 2; format: cell-based; details: Ocn 1.73-26.0 nM, 1 mM calcium, 15 min, Figure 2B
Protocol: as §1

[3] = system: wild‐type (Gprc6a +/+) and global knock out (Gprc6a −/−) mice; assay: Blood glucose after intraperitoneal injection in mice; format: in vivo, mouse; details: 2 nmol/g intraperitoneal, 24 h, n ≥ 5
Protocol: (§2) 8‐week‐old wild‐type (Gprc6a ^ +/+ ) and global knock out (Gprc6a ^ −/− ) mice were injected intraperitoneally with Ocn 20–29 (2 nmol/g body weight), or vehicle (saline; 10 μL/g body weight). Serum was collected at 24 h after intraperitoneal injection. Blood glucose levels were measured by using blood glucose strips and the Accu‐Check glucometer as described.[7], [31] A mouse IL‐6 ELISA Kit was purchased from Invitrogen (Waltham, MA, USA). Rat/Mouse FGF‐21ELISA Kit was obtained from Millipore Sigma (Burlington, MA, USA).
(§3) The Gprc6a ^ −/− mouse model was created by replacing exon 2 of the GPRC6A gene with the hygromycin resistance gene, as described previously.[32] Mice were maintained and used in accordance with recommendations as described (National Research Council 1985; Guide for the Care and Use of Laboratory Animals Department of Health and Human Services Publication NIH 86–23, Institute on Laboratory Animal Resources, Rockville, MD) and following guidelines established by the University of Tennessee Health Science Center Institutional Animal Care and Use Committee. The animal study protocol was approved by the institutional review boards at University of Tennessee Health Science Center Institutional Animal Care and Use Committee.

[4] = system: wild‐type (Gprc6a +/+) and global knock out (Gprc6a −/−) mice; assay: Serum IL-6 (ELISA) after intraperitoneal injection in mice; format: in vivo, mouse; details: 2 nmol/g IP, 24 h, n ≥ 5
Protocol: as §2, §3

| Substance | Ocn-induced cAMP accumulation, dose response (human GPRC6A isoform 2 [1]) | Ocn-induced ERK activation, dose response (human GPRC6A isoform 3) | Ocn-induced ERK activation, dose response (human GPRC6A isoform 2 [2]) | Blood glucose response ([3]; Gprc6a −/− mice) | Reduction of blood glucose levels ([3]; wild-type Gprc6a +/+ mice, 8 weeks old, single injection, vehicle saline had no effect) | Serum IL-6 response ([4]; Gprc6a −/− mice) | Serum IL-6 level versus vehicle ([4]; wild-type Gprc6a +/+ mice) |
| --- | --- | --- | --- | --- | --- | --- | --- |
| osteocalcin (YLYQWLGAPVPYPDPLEPRREVCELNPDCDELADHIGFQEAYRRFYGPV; not fully specified; ends and bridges not checked; UniProt P02818 52-100, looked up) [Ocn 1–49, full human Ocn (49 aa) synthesized by BioMatik; methods also describe decarboxylated Ocn purified from bovine tibial bone, reference compound] | complete loss of cAMP activation | attenuation of Ocn‐induced ERK stimulation | attenuated ERK response | – | – | – | – |
| REVCELNPDC (disulfide 4-10 (inferred)) [Ocn 20–29, synthesized human Ocn decapeptide fragment located in the middle of the protein] | – | – | – | lost | ~ 10% | lost | significant increase |
